Patent US20230313199A1, “TARGET FOR MODULATING BODY MASS” (Massachusetts Institute of Technology, priority 2020, published 2023)

Test system: THP-1 cells
Experiment: Inhibition of heme-stimulated thermogenesis (FPT) in THP-1 cells
Type: cell-based, human
Details: 4 μM thapsigargin 2 hours, then 40 μM heme one hour
Procedure: FIGS. 5A-5F show MFSD7C and heme regulate thermogenesis through SERCA2b in THP-1 cells. […] 30 hours later, MG132 was added into half of the cells and the other half was not treated. Another 35 hours later, some cells were treated with 40 μM heme for 1 hour before lysis. Cell lysates were immunoprecipitated with anti-FLAG antibody, and eluted, followed by anti-HA immunoprecipitation and elution. Total cell lysate and elute were subjected to Western blotting and probed with anti-SERCA2b or anti-MFSD7C antibodies. Shown are representative data from one of three experiments. […] 24 hrs later, cells were either not treated or treated with 10 μM MG132 for either 6 or 12 hours. The cells were lysed and subjected to FLAG pull-down and blotted with anti-MFSD7C, anti-SERCA2b and anti-ubiquitin antibodies. Shown are representative data from one of three experiments. […] Parental THP-1 cells were either not treated or treated with heme before lysis. Shown are representative data from one of four experiments. […]
FIGS. 16A-16F show Co-localization of MFSD7C and SERCA2b. […] Co-localization between MFSD7C and SERCA2b was quantified. […] P-values were calculated using unpaired t-test (***p<0.05). […]
In the second approach, we used fluorescent polymeric thermometer (FPT), which we synthesized in-house (see above). […] Then the fluorescence intensities were determined by a flow cytometer.

In the case of `C/C=C(/C)C(=O)O[C@H]1C(C)=C2[C@H]([C@@H]1OC(=O)CCCCCCC)[C@@](C)(OC(C)=O)C[C@H](OC(=O)CCC)[C@@]1(O)[C@H]2OC(=O)[C@@]1(C)O` [thapsigargin], the heme-stimulated thermogenesis is reported as “mostly inhibited”.
